Assay results taken from patent US20230416205A1, “COMPOUNDS, COMPOSITIONS, AND METHODS” (Denali Therapeutics Inc, priority 2020, published 2023).
pIC50: −log10 of the molar value. Where two headings read alike, the source gives them in different places.

Test system: NLRP3
Assay: IL-1β secretion assay in PMA-differentiated, LPS/nigericin-stimulated THP-1 cells (384-well, ELISA read-out)
Type: cell-based, human
Outline: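 Secreted IL-1β quantified by capture ELISA from supernatants of PMA-differentiated THP-1 cells (30K per well). Sequence: LPS 25 ng/mL priming 2 h, compound 1 h, nigericin 2 h; dose-responses normalized between high (LPS plus 5 μM nigericin) and low (LPS alone) controls.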

[1] = Homo sapiens, THP-1, Table 4, IL-1β secretion, LPS/nigericin-stimulated THP-1 cells, read-out: IC50
[2] = Homo sapiens, THP-1, IL-1β secretion, PMA-differentiated THP-1 cells, LPS then nigericin stimulation, ELISA read at 450 nm, read-out: Activity
[3] = IL-1β secretion, PMA-differentiated THP-1 cells, LPS then nigericin stimulation, ELISA read at 450 nm, read-out: Activity
[4] = Table 4, IL-1β secretion, LPS/nigericin-stimulated THP-1 cells, read-out: IC50

| Compound | pIC50 [1] | pIC50 [2] | pIC50 [3] | pIC50 [4] |
| --- | --- | --- | --- | --- |
| CC1(C(F)(F)F)CN(CC(=O)Nc2ncc(F)cn2)C(=O)c2c(Br)cccc21 (stereo not shown) [Example 344, 2-[8-bromo-4-methyl-1-oxo-4-(trifluoromethyl)-3H-isoquinolin-2-yl]-N-(5-fluoropyrimidin-2-yl)acetamide] | 4.56 |  |  |  |
| CC1(C)CN(CC(=O)N[C@H]2C[C@@](C)(O)C2)C(=O)c2ccc(Br)cc21 [Example 46, 2-(6-bromo-4,4-dimethyl-1-oxo-3H-isoquinolin-2-yl)-N-(cis-3-hydroxy-3-methyl-cyclobutyl)acetamide] | 5.81 | > 5.00 |  |  |
| O=C(CN1CC2(CC2)c2cc(Br)ccc2C1=O)Nc1ncc2ccccc2n1 [Example 197, 2-(6-bromo-1-oxospiro[3H-isoquinoline-4,1′-cyclopropane]-2-yl)-N-quinazolin-2-ylacetamide] | 5.90 | > 5.00 |  |  |
| O=C(CN1CC2(CC2)c2cc(Br)ccc2C1=O)Nc1ncn(CC(F)(F)F)n1 [Example 425, 2-(6-bromo-1-oxospiro[3H-isoquinoline-4,1′-cyclopropane]-2-yl)-N-[1-(2,2,2-trifluoroethyl)-1,2,4-triazol-3-yl]acetamide] | 5.55 |  |  |  |
| O=C(CN1CC2(CC2)c2cc(Br)ccc2C1=O)NCc1ncco1 [Example 119, 2-(6-bromo-1-oxospiro[3H-isoquinoline-4,1′-cyclopropane]-2-yl)-N-(1,3-oxazol-2-ylmethyl)acetamide] | 4.52 | < 4.82 |  |  |
| O=C(CN1C[C@@]2(C[C@H]2F)c2cc(Br)ccc2C1=O)Nc1ncc(F)cn1 (mixture of isomers) [Example 80, 2-[(2′r,4r)-6-bromo-2′-fluoro-1-oxospiro[3H-isoquinoline-4,1′-cyclopropane]-2-yl]-N-(5-fluoropyrimidin-2-yl)acetamide] | 5.97 | > 5.00 |  |  |
| O=C(CN1CC2(CC2)c2cc(Br)ccc2C1=O)NCCN1CCOCC1 [Example 128, 2-(6-bromo-1-oxospiro[3H-isoquinoline-4,1′-cyclopropane]-2-yl)-N-(2-morpholin-4-ylethyl)acetamide] | 4.92 | 4.82 to 5.00 |  |  |
| CC(C)(O)CC1(NC(=O)CN2CC3(CC3)c3cc(Br)ccc3C2=O)CC1 [Example 174, 2-(6-bromo-1-oxospiro[3H-isoquinoline-4,1′-cyclopropane]-2-yl)-N-[1-(2-hydroxy-2-methylpropyl)cyclopropyl]acetamide] | 4.96 | 4.82 to 5.00 |  |  |
| C[C@@H]1[C@H](F)[C@]12CN(CC(=O)Nc1ncc(F)cn1)C(=O)c1ccc(Br)cc12 (single isomer, unassigned) [Example 278, 2-[(2′s,3′s,4r)-6-bromo-2′-fluoro-3′-methyl-1-oxospiro[3H-isoquinoline-4,1′-cyclopropane]-2-yl]-N-(5-fluoropyrimidin-2-yl)acetamide] |  |  | > 5.00 | 5.75 |
| O=C(CN1CC2(CC2)c2cc(Br)ccc2C1=O)Nc1ccnn1-c1ccccc1 [Example 152, 2-(6-bromo-1-oxospiro[3H-isoquinoline-4,1′-cyclopropane]-2-yl)-N-(2-phenylpyrazol-3-yl)acetamide] | 4.67 | < 4.82 |  |  |
| O=C(CN1CC2(CC2)c2cc(Br)ccc2C1=O)Nc1cncc2ccccc12 [Example 153, 2-(6-bromo-1-oxospiro[3H-isoquinoline-4,1′-cyclopropane]-2-yl)-N-isoquinolin-4-ylacetamide] | 4.48 | < 4.82 |  |  |
| O=C(CN1CC2(CC2)c2cc(Br)ccc2C1=O)N[C@@H]1CCN(Cc2ccccc2)C1 [Example 355, N-[(3R)-1-benzylpyrrolidin-3-yl]-2-(6-bromo-1-oxospiro[3H-isoquinoline-4,1′-cyclopropane]-2-yl)acetamide] | 5.30 |  |  |  |
| O=C(CN1CC2(CC2)c2cc(Br)ccc2C1=O)Nc1nccn2cnnc12 [Example 350, 2-(6-bromo-1-oxospiro[3H-isoquinoline-4,1′-cyclopropane]-2-yl)-N-([1,2,4]triazolo[4,3-a]pyrazin-8-yl)acetamide] | 5.44 |  |  |  |
| CC1CC12CN(CC(=O)Nc1ncccn1)C(=O)c1ccc(C(F)(F)F)cc12 (stereo not shown) [Example 29, 2-[2′-methyl-1-oxo-6-(trifluoromethyl)spiro[3H-isoquinoline-4,1′-cyclopropane]-2-yl]-N-pyrimidin-2-yl-acetamide] | 6.41 | > 5.00 |  |  |
| O=C(CN1CC2(CC2)c2cc(C3CCC3)ccc2C1=O)Nc1ncc(F)cn1 [Example 87, 2-(6-cyclobutyl-1-oxospiro[3H-isoquinoline-4,1′-cyclopropane]-2-yl)-N-(5-fluoropyrimidin-2-yl)acetamide] | 5.27 | > 5.00 |  |  |
| O=C(CN1CC2(CC2)c2cc([C@@]3(F)C[C@@H]3F)ccc2C1=O)Nc1ncc(F)cn1 (single isomer, unassigned) [Example 252, 2-[6-[(1r,2r)-1,2-difluorocyclopropyl]-1-oxospiro[3H-isoquinoline-4,1′-cyclopropane]-2-yl]-N-(5-fluoropyrimidin-2-yl)acetamide] |  |  | > 5.00 | 6.34 |

| Compound | pIC50 [1] | pIC50 [2] | pIC50 [3] | pIC50 [4] |
| --- | --- | --- | --- | --- |
| Cc1cnc(NC(=O)CN2C[C@@]3(C[C@@H]3F)c3cc(C(F)(F)F)ccc3C2=O)nc1 (single isomer, unassigned) [Example 244, 2-[(2′s,4r)-2′-fluoro-1-oxo-6-(trifluoromethyl)spiro[3H-isoquinoline-4,1′-cyclopropane]-2-yl]-N-(5-methylpyrimidin-2-yl)acetamide] |  | > 5.00 |  | 7.12 |
| O=C(CN1CC2(CC2)c2cc(Br)ccc2C1=O)Nc1ccc2cnsc2c1 [Example 398, N-(1,2-benzothiazol-6-yl)-2-(6-bromo-1-oxospiro[3H-isoquinoline-4,1′-cyclopropane]-2-yl)acetamide] | 5.72 |  |  |  |
| O=C(CN1C[C@@]2(C[C@@H]2F)c2cc(Br)cc(F)c2C1=O)Nc1ncc(F)cn1 (mixture of isomers) [Example 285, 2-[(2′s,4r)-6-bromo-2′,8-difluoro-1-oxospiro[3H-isoquinoline-4,1′-cyclopropane]-2-yl]-N-(5-fluoropyrimidin-2-yl)acetamide] | 6.78 | > 5.00 |  |  |
| O=C(CN1CC2(CC2)c2cc(Br)ccc2C1=O)Nc1ccc(OC(F)F)nc1 [Example 420, 2-(6-bromo-1-oxospiro[3H-isoquinoline-4,1′-cyclopropane]-2-yl)-N-[6-(difluoromethoxy)pyridin-3-yl]acetamide] | 5.42 |  |  |  |
| O=C(CN1CC2(CC2)c2cc(Br)ccc2C1=O)N[C@H]1C[C@@H](c2ccn[nH]2)C1 [Example 334, 2-(6-bromo-1-oxospiro[3H-isoquinoline-4,1′-cyclopropane]-2-yl)-N-[3-cis-(1H-pyrazol-5-yl)cyclobutyl]acetamide] | 5.12 |  |  |  |
| O=C(CN1CC2(CC2(F)F)c2c(ccc(Br)c2F)C1=O)Nc1ncc(Cl)cn1 (single isomer, unassigned) [Example 318, 2-[6-bromo-1′,1′,5-trifluoro-1-oxospiro[3H-isoquinoline-4,2′-cyclopropane]-2-yl]-N-(5-chloropyrimidin-2-yl)acetamide] |  |  |  | 8.10 |
| O=C(CN1CC2(CC2)c2cc(Br)ccc2C1=O)NCCn1ccnc1 [Example 121, 2-(6-bromo-1-oxospiro[3H-isoquinoline-4,1′-cyclopropane]-2-yl)-N-(2-imidazol-1-ylethyl)acetamide] | 4.92 | 4.82 to 5.00 |  |  |
| O=C(CN1CC2(CC2)c2cc(Br)ccc2C1=O)Nc1ccc(Cl)cn1 [Example 196, 2-(6-bromo-1-oxospiro[3H-isoquinoline-4,1′-cyclopropane]-2-yl)-N-(5-chloropyridin-2-yl)acetamide] | 6.29 | > 5.00 |  |  |
| O=C(CN1CC2(CC2)c2cc(Br)ccc2C1=O)Nc1ccc2cnccc2c1 [Example 136, 2-(6-bromo-1-oxospiro[3H-isoquinoline-4,1′-cyclopropane]-2-yl)-N-isoquinolin-6-ylacetamide] |  | > 5.00 |  |  |
| O=C(CN1CC2(CC2)c2cc(C3CC3)ccc2C1=O)Nc1ncc(Cl)cn1 [Example 34, N-(5-chloropyrimidin-2-yl)-2-(6-cyclopropyl-1-oxo-spiro[3H-isoquinoline-4,1′-cyclopropane]-2-yl)acetamide] | 6.86 | > 5.00 |  |  |
| CC(F)(F)c1ccc2c(c1)C1(CC1)CN(CC(=O)Nc1ncc(F)cn1)C2=O [Example 101, 2-[6-(1,1-difluoroethyl)-1-oxospiro[3H-isoquinoline-4,1′-cyclopropane]-2-yl]-N-(5-fluoropyrimidin-2-yl)acetamide] | 6.17 | > 5.00 |  |  |
| O=C(CN1CC2(CC2)c2c(F)cccc2C1=O)Nc1ncccn1 [Example 40, 2-(5-fluoro-1-oxo-spiro[3H-isoquinoline-4,1′-cyclopropane]-2-yl)-N-(pyrimidin-2-yl)acetamide] | 5.06 | > 5.00 |  |  |
| COc1ncnc(NC(=O)CN2CC3(CC3)c3cc(Br)ccc3C2=O)c1F [Example 401, 2-(6-bromo-1-oxospiro[3H-isoquinoline-4,1′-cyclopropane]-2-yl)-N-(5-fluoro-6-methoxypyrimidin-4-yl)acetamide] | 5.72 |  |  |  |
| Cc1cnc(NC(=O)CN2CC3(CC3)c3cc(Br)ccc3C2=O)nc1 [Example 202, 2-(6-bromo-1-oxospiro[3H-isoquinoline-4,1′-cyclopropane]-2-yl)-N-(5-methylpyrimidin-2-yl)acetamide] | 6.73 | > 5.00 |  |  |
| O=C(CN1CC2(CCC2)c2cc(Br)ccc2C1=O)Nc1ncccn1 [Example 32, 2-(6-bromo-1-oxo-spiro[3H-isoquinoline-4,1′-cyclobutane]-2-yl)-N-pyrimidin-2-yl-acetamide] | 5.71 | > 5.00 |  |  |
